Experimental data from patent publication US20040266794A1, “Pramipexole for the reduction of excessive food intake for children” (Boehringer Ingelheim International GmbH, priority 2003, published 2004).
Read-outs that look alike come from different tables or passages of the source.

How the values were obtained:
[1] = system: mice (Strain: C57BL/6)
Procedure: (§1) 10 mice (Strain: C57BL/6) were deprived of food for 24 hours while being given free access to drinking water.

[2] = system: mice (Strain: C57BL/6); details: C57BL/6 mice fasted 24 hours; single application given on successive days, 2.5 mg/kg of body weight s.c.; food consumption over 4 days; vs physiological saline; FIG. 1
Procedure: Test method by single administration:
as §1
20 minutes before the end of the fasting period pramipexol was administered (2.5 mg/kg of body weight s.c.). The control group, also 10 mice, were given physiological saline solution, the solvent used for pramipexol. Then the animals were offered food and the food consumption over 4 days in 30 minute cycles was measured.

CCCN[C@H]1CCc2nc(N)sc2C1 [Pramipexol]
food intake ([1]; C57BL/6 mice fasted 24 hours, continuous administration by alzet Mini-osmotic pump s.c., 2.5 mg of pramipexol/24 hours, measured for 4 days, vs physiological saline, FIG. 1): permanent, statistically highly significant inhibition in food intake | change in weight ([1]; C57BL/6 mice, continuous (long term) administration by osmotic pump s.c., measured daily over 22 days, administration ending after 14 days, FIG. 2): permanent weight reduction was observed which was statistically highly significant even after the pramipexol treatment had ended | food intake [2]: did not significantly reduce food intake
